# Results as given in patent publication US20180098969A1, “HODGKIN LYMPHOMA THERAPY” (Purdue Pharmaceutical Products L.P., priority 2016, published 2018).
# Experiments:
# [1] = system: Hodgkin lymphoma cell lines; assay: Mitotic index and chromosomal aberrations; assay type: cell-based, human
# Protocol: (§1) The mitotic index and chromosomal aberrations for each of the cell lines were evaluated after treatment with either 20 μmol or 10 μmol EDO-S101 in DMSO. Each cell line was cultured at 37° C. in the presence of RPMI 1640 supplemented with 10% FCS and antibiotics. Colcemid (0.1 ug/ml) was added 2 h before harvesting and slides with chromosomes in metaphase were prepared following the standard methanol/acetic acid (3/1, v/v) procedure. The slides were stored at −20° C. until use.
# (§2) FISH was performed using a combination of standard procedures from the recommended protocols for chromosome analysis, following telomere and centromere staining, using PNA probes. In all, 100 metaphases were scored per in vitro dose exposure.
# (§3) The mitotic index was determined by measurement of the sum of all cells in prophase, metaphase, anaphase and telophase divided by the total number of cells.
# [2] = system: KMH2 cell line; assay: Mitotic index and chromosomal aberrations; assay type: cell-based, human
# Protocol: as §1, §2, §3
# [3] = system: L540 cell line; assay: Mitotic index and chromosomal aberrations; assay type: cell-based, human
# Protocol: as §1, §2, §3
# [4] = system: Hodgkin lymphoma cell lines (KMH2, HDML2, L540, L1236 and L426); assay: IC50 comparison of bendamustine, vorinostat and EDO-S101; assay type: cell-based, human; conditions: tumour cells of Hodgkin lymphoma
# Protocol: (a) Five Hodgkin lymphoma cell lines (KMH2, HDML2, L540, L1236 and L426) were cultured separately in the presence of bendamustine, vorinostat and EDO-S101 dissolved in DMSO at 37° C. L1236-derived Hodgkin lymphoma cell lines were selected as they have an acquired stable resistance to bendamustine (R100) or an ability to display continuous growth upon extended exposure to sub-lethal concentrations of bendamustine (R25, R50 and R75). A detailed description of the L1236-R Hodgkin lymphoma cell lines is disclosed in De Filippi et al, ASH 2015, Abstract. # 2479. In these tests, the L1236-100R bendamustine resistant strain was used.
# [5] = system: Hodgkin lymphoma cell lines L1236-R100, L1236/DMSO and L1236; assay: Viable cell count and IC50, all three lines; assay type: cell-based, human
# Protocol: (b) The bendamustine-resistant Hodgkin lymphoma cell line L1236-R100, non-resistant L1236 Hodgkin lymphoma cell line cultured in DMSO L1236/DMSO and L1236 was cultured in the presence of EDO-S101 dissolved in DMSO at concentrations of 0.78 μM, 1.56 μM, 3.12 μM, 6.25 μM and 12.5 μM. Control cells were cultured in the same final concentration of DMSO. The number of viable cells was assessed at 24, 48 and 72 hours through a Countess™ automated cell counter (Invitrogen), each experiment being repeated three times and the results given being the mean of the three results ±SD.
# [6] = system: L428 cells; assay: Cytogenetic investigation of cells from xenografted mice; assay type: in vivo, NSG mice; conditions: different doses including single 60 mg/kg
# Protocol: Separated cells were cultured in the presence of RPMI 1640 supplemented with 10% Fetal Calf Serum (FCS) and antibiotics, colcemid (0.1 μg/ml) added 2 h before harvesting, and the slides with metaphase chromosomes prepared following the standard methanol/acetic acid (3/1, v/v) procedure.
# Four new cell lines were generated after one month of in vitro culture following 24 hour of exposure to EDO-S101. Fluorescence in situ hybridysation (FISH) was performed using a combination of standard procedures from the recommended protocols for chromosomal analysis, following telomere and centromere staining, using peptide nucleic acid (PNA) probes in order to detect unstable chromosomal aberrations and to delimit the chromosome territory. M-FISH was performed using multi-FISH probes (Metasystems GmbH, Altlussheim, Germany), according to the manufacturer's recommendations on the same slide. Images of hybridized metaphases were captured using a charge coupled device camera (Zeiss, Thornwood, N.Y.) coupled to a Zeiss Axioplan microscope and processed using ISIS software (Metasystems).
# The ocular tumour masses were harvested, as well as cells which infiltrated the liver. Five new cell lines were established from ocular tumours and the livers of both control mice (PBS or vehicle). […]
# [7] = system: CD14 cells; assay: CD14-positive cells by flow cytometry in xenografted mice; assay type: in vivo, NSG mice
# Protocol: Cells were gated to exclude apoptotic or necrotic cells and sorted into CD30−/CD15− and CD30+ and CD15+/CD30+ fractions by gating on the lowest and highest 5% PE-expressing cells, respectively. Following sorting, the CD30−/CD15− cell fractions were analyzed using a FACScan flow cytometer (Becton Dickinson) and found to be more than 98% pure. For phenotypic analyses of cell lines or sorted cells, cells were prepared as described, and then stained with mouse anti-human CD30-phycoerthrin (PE), CD15-fluorescein isothyocyanate (FITC), CD14-APC-cyanine 7 (Cy7) and CD45-APC (all antibodies from BD PharMingen, San Diego, Calif.). […] Cells were subsequently analysed using a FACS LSRII (Becton Dickinson, Franklin Lakes, N.J.). […]
# Novel biomarkers CD68 and CD14 which are expressed by tumour associated macrophages and myeloid derived suppressor cells respectively in the microenvironment have recently been reported to affect the prognosis of Hodgkin lymphoma (Haematologica, 2011 Feb; 96(2): 186-189). The presence of the CD14-positive cells following administration of a single dose of EDO-S101 (60 mg/kg or 80 mg/kg) and after two administrations of EDO-S101 at 60 mg/kg was evaluated using flow cytometry with anti CD14 antibodies.
# [8] = system: L1236 cell line; assay: Cell cycle checkpoint proteins and gene expression; assay type: cell-based, human; conditions: EDO-S101 alone
# Protocol: (§4) 1.56 μM of EDO-S101 was administered to two Hodgkin lymphoma cell lines, the bendamustine naïve cell line L1236 and the bendamustine resistant cell line R100. In a second experiment, Brentuximab Vedotin was administered at a concentration of 3.12 μg/ml to the L1236 cell line and at a concentration of 0.39 μg/ml to the R100 cell line. Finally, in a third experiment EDO-S101 and Brentuximab Vedotin were administered in combination to each of the two cell lines at the same concentrations that they were administered in the monotherapy experiments.
# [9] = system: R100 cell line; assay: ATM/ATR transcripts; assay type: cell-based, human; conditions: EDO-S101 alone
# Protocol: as §4
smiles,measurement,setting,value
Cn1c(CCCCCCC(=O)NO)nc2cc(N(CCCl)CCCl)ccc21 [EDO-S101],metaphases observed,[1]; 10 μmol,only a few metaphases of poor quality
same,metaphases observed,"[1]; 20 μmol, any cell line",No metaphases were observed
same,sensitivity in mitotic index assay,"[1]; all cell lines, 24 h of treatment",remarkably high sensitivity
same,mitotic index,[2],very low mitotic index
same,chromosomal aberrations in metaphase,[2]; telomere and centromere staining,numerous chromosomal aberrations
same,mitotic index,[3],very low mitotic index
same,IC50s compared with those of bendamustine,[4],about ten-fold lower
same,anti-proliferative activity compared with bendamustine,[5],approximately two orders of magnitude greater than for bendamustine
same,metaphases or cell lines from cells of treated mice,[6],not possible to obtain either metaphases from direct culture or establish cell lines
same,frequency of CD14 cells,[7]; 2×60 mg/kg versus single 80 mg/kg,higher frequency following treatment with 2×60 mg/kg than treatment with a single dose of 80 mg/kg
same,frequency of CD14 cells,[7]; treated versus untreated mice,significantly higher frequency of CD14 cells in untreated mice compared to treated mice
same,effect on cell cycle checkpoint proteins,[8],activated cell cycle checkpoint proteins
same,effect on ATM/ATR unbalance,[9],upregulating ATR and downregulating ATM transcripts
